Assay results: patent publication US6605424B1, “Method of detecting inhibitors of agonist-specific desensitization” (Duke University, priority 1989, dated 2003)
Like-named read-outs stand apart in the source and are kept apart here. One block for each molecule: values may come before it.

Biological target: T1, βAR kinase (Bos taurus, UniProt P21146)
T1 construct: βAR kinase was purified from bovine cerebral cortex; from tissue; host or cells: bovine cerebral cortex
T1 sequence (P21146 1-689): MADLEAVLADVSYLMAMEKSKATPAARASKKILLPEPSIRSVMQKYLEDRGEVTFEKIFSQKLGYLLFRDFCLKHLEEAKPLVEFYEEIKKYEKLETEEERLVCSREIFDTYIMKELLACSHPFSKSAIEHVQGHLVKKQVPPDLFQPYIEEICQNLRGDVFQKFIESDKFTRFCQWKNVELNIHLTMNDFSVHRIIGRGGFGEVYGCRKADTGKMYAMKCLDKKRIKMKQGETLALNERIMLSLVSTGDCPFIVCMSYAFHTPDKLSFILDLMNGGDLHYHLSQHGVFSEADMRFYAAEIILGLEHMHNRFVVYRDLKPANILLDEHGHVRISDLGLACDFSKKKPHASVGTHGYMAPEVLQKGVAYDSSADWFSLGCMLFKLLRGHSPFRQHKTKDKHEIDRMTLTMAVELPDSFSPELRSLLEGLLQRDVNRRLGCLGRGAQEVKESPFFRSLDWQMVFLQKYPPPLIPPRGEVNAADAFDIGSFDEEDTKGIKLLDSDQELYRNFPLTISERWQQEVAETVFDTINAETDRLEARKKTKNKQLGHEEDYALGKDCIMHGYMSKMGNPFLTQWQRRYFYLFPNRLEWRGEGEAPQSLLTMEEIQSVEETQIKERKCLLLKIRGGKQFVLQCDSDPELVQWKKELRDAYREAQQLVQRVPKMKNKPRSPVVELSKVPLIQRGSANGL
Test: Phosphorylation of rhodopsin (urea-treated rod outer segments) by βAR kinase
Type: biochemical, bovine
Conditions: for inhibition of βAR kinase: polycations, FIG. 3; for Hill coefficient of inhibition: data of FIG. 1
Description: βAR kinase was purified from bovine cerebral cortex by modification of procedure of Benovic et al (J. Biol. Chem. (1987) 262:9026-9032). Briefly, 250 g of bovine cerebral cortex were homogenized with a Brinkmann tissue disrupter and centrifuged (40,000×g, 30 min). The supernatant was then precipitated with 13-26% ammonium sulfate. This material was initially chromatographed on a Ultrogel AcA34 column equilibrated with 5 mM Tris-HCl, pH 7.5, 2 mM EDTA, 10 μg/ml leupeptin, 5 μg/ml pepstatin, 10 μg/ml benzamidine, 0.2 mM phenylmethylsulfonyl fluoride (buffer A). The peak activity was diluted with an equal volume of buffer A containing 0.04% Triton X-100 before being applied to a DEAE-Sephacel column. Elution was accomplished with a 0-80 mM NaCl gradient in buffer A containing 0.02% Triton X-100. The peak activity was then applied to a CM-Fractogel column and eluted with a 0-100 mM NaCl gradient in buffer A containing 0.02% Triton X-100. The purified kinase is stable at 4° C. for several months. For these studies the βAR kinase preparations were >75% pure.
Rod outer segments were prepared from bovine retinas by stepwise sucrose gradient centrifugation (Wilden et al Biochemistry (1982) 21:3014-3022). Rhodopsin kinase-free rod outer segments were prepared by treatment with 5 M urea (Shichi et al J. Biol. Chem. (1978) 253:7040-7046) and consisted of ˜95% rhodopsin, as assessed by Coomassie Blue staining of sodium dodecyl sulfate-polyacrylamide gels.
Urea-treated rod outer segments were phosphorylated with βAR kinase as follows. Urea-treated rod outer segments (˜4 μg of rhodopsin) were incubated with βAR kinase (˜0.1 μg) for 10-15 min at 30° C. in the presence of 40 mM Tris-HCl, pH 7.4, 10 mM NaCl, 5 mM MgCl2, 1.5 mM EDTA, and 65 μM ATP (˜1 cpm/fmol) (total reaction volume was 40 μl). Reactions were stopped by the addition of 40 μl of sodium dodecyl sulfate sample buffer (see below) followed by sodium dodecyl sulfate-polyacrylamide gel electrophoresis. After autoradiography, the phosphorylated rhodopsin bands were excised and counted.
Sodium dodecyl sulfate-polyacrylamide gel electrophoresis was performed by the method of Laemmli (Nature (1970) 227:680-685) using 10% homogeneous polyacrylamide slab gels. Sample buffer contained 8% sodium dodecyl sulfate, 10% glycerol, 5% 3-mercaptoethanol, 25 mM Tris-HCl, pH 6.5, and 0.003% bromphenol blue. After electrophoresis, gels were dried with a Bio-Rad gel dryer prior to autoradiography.

[1] = read-out: IC50 (concentration of compound which gave 50% inhibition of βAR kinase), rhodopsin as substrate
[2] = rhodopsin as substrate, mean ± S.E.
[3] = IC50 (concentration of compound which gave 50% inhibition of βAR kinase), rhodopsin as substrate
[4] = IC50 (concentration of compound which gave 50% inhibition of βAR kinase), rhodopsin as substrate, mean ± S.E.

- IC50 [1]: 7300 µM
- concentration range of inhibition (rhodopsin as substrate): millimolar range
- IC50 (concentration of compound which gave 50% inhibition of βAR kinase) [2]: 2800 µg/mL
Molecule: O=S(=O)(O)NC1C(O)OC(COS(=O)(=O)O)C(O)C1O (centres unmarked) [Glucosamine 2,6-disulfate, glucosamine 2,6-disulfate]

- inhibition of βAR kinase: weak inhibitors
Molecule: NCCCNCCCCNCCCN [Spermine, spermine]

- IC50 (concentration of compound which gave 50% inhibition of βAR kinase) [2]: 1.8 µg/mL
Molecule: heparan sulfate

- IC50 [3]: 3600 µM
- IC50 [4]: 5040 µM
Molecule: O=P(O)(O)O[C@H]1[C@H](OP(=O)(O)O)[C@@H](OP(=O)(O)O)[C@H](OP(=O)(O)O)[C@@H](OP(=O)(O)O)[C@H]1OP(=O)(O)O [Inositol hexaphosphate, inositol hexaphosphate]

- IC50 [1]: 1100 µM
- concentration range of inhibition (rhodopsin as substrate): millimolar range
- IC50 (concentration of compound which gave 50% inhibition of βAR kinase) [2]: 838 µg/mL
Molecule: O=C(O)C(COP(=O)(O)O)OP(=O)(O)O (centres unmarked) [2,3-Diphosphoglycerate, 2,3-diphosphoglycerate]

Molecule: NCCCCNCCCN [spermidine]
- inhibition of βAR kinase: weak inhibitors

- IC50 [1]: 2 µM
- IC50 (concentration of compound which gave 50% inhibition of βAR kinase) [2]: 27 ± 2 µg/mL
Molecule: polyglutamic acid

- IC50 [3]: 13.5 µM
- IC50 [4]: 18.2 µM
- times more potent than inositol hexaphosphate (rhodopsin as substrate): ~270 times
Molecule: O=S(=O)(O)OC1C(OS(=O)(=O)O)C(OS(=O)(=O)O)C(OS(=O)(=O)O)C(OS(=O)(=O)O)C1OS(=O)(=O)O (centres unmarked) [Inositol hexasulfate, inositol hexasulfate]

- IC50 [3]: 900 µM
- IC50 [4]: 898 µM
- concentration range of inhibition (rhodopsin as substrate): millimolar range
Molecule: Cc1ncc(COP(=O)(O)O)c(C=O)c1O [Pyridoxal phosphate, pyridoxal phosphate]

- IC50 (concentration of compound which gave 50% inhibition of βAR kinase) [2]: 6 µg/mL
Molecule: chondroitin sulfate C

- Hill coefficient of inhibition: ~2
- IC50 [1]: 0.15 µM
- IC50 (concentration of compound which gave 50% inhibition of βAR kinase) [2]: 0.76 ± 0.21 µg/mL
Molecule: dextran sulfate

- Hill coefficient of inhibition: ~2
- fold weaker than heparin (rhodopsin as substrate): ~8 fold
- IC50 (concentration of compound which gave 50% inhibition of βAR kinase) [2]: 6.0 ± 2.4 µg/mL
Molecule: de-N-sulfated heparin

- IC50 (concentration of compound which gave 50% inhibition of βAR kinase) [2]: 25 µg/mL
Molecule: chondroitin sulfate B

- IC50 [1]: 1.3 µM
- IC50 (concentration of compound which gave 50% inhibition of βAR kinase) [2]: 14 µg/mL
Molecule: polyaspartic acid
